# Test results published in US12384776B2, “Compounds and uses thereof” (Foghorn Therapeutics Inc., priority 2019, dated 2025).
# Legend:
# Format in all cases: cell-based
# [1] = system: non-synovial control cancer cell lines (RD, HCT116, and Calu6); assay: Crystal violet growth assay in non-synovial control cancer cell lines, Example 4; conditions: day 14
# Method: (§1) Procedure: Cells were seeded into 6-well or 12-well plates and were treated daily with a BRD9 degrader (Compound 1), a bromo-domain BRD9 binder (Compound 2), E3 ligase binder (lenalidomide), DMSO, or staurosporin (positive control for cell killing), at indicated concentrations. The number of cells was optimized for each cell line. Growth media was refreshed every 5 days. By day 14, medium was removed, cells were washed with PBS, and stained using 500 μL of 0.005% (w/v) crystal violet solution in 25% (v/v) methanol for at least 1 hour at room temperature. Subsequently plates were scanned on an Odyssey CLx Imaging system.
# [2] = system: synovial sarcoma cell lines (SYO1, HS-SY-II, and ASKA); assay: Crystal violet growth assay in synovial sarcoma cell lines, Example 4; conditions: for inhibition of the growth of the cells: synovial sarcoma cell lines SYO1, HS-SY-II, ASKA, day 14
# Method: as §1
# [3] = system: synovial sarcoma cell lines (SYO1, Yamato, HS-SY-II, and ASKA); assay: Growth of synovial sarcoma cell lines (IncuCyte confluency, crystal violet, colony imaging), Example 3
# Method: (§2) Cells were treated with DMSO or the BRD9 degrader, Compound 1, at indicated concentrations, and proliferation was monitored from day 7 to day 14 by measuring confluency over time using an IncuCyte live cell analysis system (FIG. 5). Growth medium and compounds were refreshed every 3-4 days.
# (§3) Cells were seeded into 12-well plates and treated with DMSO, 1 μM BRD9 inhibitor, Compound 2 (also known as BI-7273, see Martin et al, J Med Chem. 59(10):4462-4475 (2016); see structure of compound 2 below), or 1 μM BRD9 degrader, Compound 1.
# (§4) The number of cells was optimized for each cell line. Growth medium and compounds were refreshed every 3-5 days. SYO1, Yamato, A549, 293T and HS-SY-II cells were fixed and stained at day 11. ASKA cells were fixed and stained at day 23. Staining was done by incubation with crystal violet solution (0.5 g Crystal Violet, 27 ml 37% Formaldehyde, 100 mL 10×PBS, 10 mL Methanol, 863 dH20 to 1 L) for 30 min followed by 3× washes with water and drying the plates for at least 24 h at room temperature. Subsequently plates were scanned on an Odyssey CLx Imaging system (FIG. 6).
# (§5) Cells were seeded into 96-well ultra low cluster plate (Costar, #7007) in 200 μL complete media and treated at day 2 with DMSO, Staurosporin, or BRD9 degarder, Compound 1, at indicated doses (FIG. 3C). Media and compounds were changed every 5 d and cell colonies were imaged at day 14.
# SYO1 cells [4] = assay: Cell cycle analysis (Click-iT Plus EdU Flow Cytometry Assay); conditions: 200 nM or 1 μM, 8 or 13 days, as compared to DMSO and lenalidomide
# Method: (§6) Procedure: SYO1 cells were treated for 8 or 13 days with DMSO, a BRD9 degrader (Compound 1) at 200 nM or 1 μM, or an E3 ligase binder (lenalidomide) at 200 nM. Compounds were refreshed every 5 days. Cell cycle analysis was performed using the Click-iT™ Plus EdU Flow Cytometry Assay (Invitrogen). The apoptosis assay was performed using the Annexin V-FITC Apoptosis Detection Kit (Sigma A9210). Assays were performed according to the manufacturer's protocol.
# SYO1 cells [5] = assay: Apoptosis assay (Annexin V-FITC Apoptosis Detection Kit); conditions: 200 nM or 1 μM, 8 days, as compared to DMSO controls
# Method: as §6
# [6] = system: non-synovial control cancer cell lines (293T, A549, G401); assay: Growth of non-synovial control cancer cell lines, Example 3
# Method: as §2, §3, §4, §5
Compound,inhibition of the growth of the cells [1],growth inhibition compared with the other treatments ([2]; all synovial cell lines),inhibition of the growth of the cells [2],inhibition of the growth of the cells [3],numbers of cells in the S-phase of the cell cycle (SYO1 cells [4]),numbers of early- and late-apoptotic cells (SYO1 cells [5]),inhibition of the growth of the cells [6]
COc1cc(-c2cn(C)c(=O)c3cnccc23)cc(OC)c1CN(C)CC(=O)NCCOCCOCCNc1cccc2c1C(=O)N(C1CCC(=O)NC1=O)C2=O (centres unmarked) [Compound 1],did not result in inhibition of the growth,most significant growth inhibition,inhibition of the growth of the cells,inhibition of the growth of the cells,reduced numbers of cells in the S-phase,increased numbers of early- and late-apoptotic cells,does not result in inhibition of the growth
COc1cc(-c2cn(C)c(=O)c3cnccc23)cc(OC)c1CN(C)C [Compound 2],did not result in inhibition of the growth,–,inhibition of the growth of the cells,inhibition of the growth of the cells,–,–,does not result in inhibition of the growth
